pIC50: −log10 of the molar value. Calls of active or inactive are those of the source. The calls are words filed in the database; no cut-off is given here.
Legend:
[1] = system: BT-549; test: Cytotoxicity against human BT-549 cells assessed as inhibition of cell growth incubated for 72 hrs by MTT assay; format: functional, cell-based; settings: BT-549, 72 h
[2] = system: BT-549; test: Induction of DNA damage in human BT-549 cells assessed as increase in gamma-H2AX localization in nucleus at 0.125 uM incubated for 48 hrs by fluorescence confocal microscopic analysis; format: functional, cell-based
[3] = system: MCF7; test: Cytotoxicity against human MCF7 cells assessed as inhibition of cell growth incubated for 72 hrs by MTT assay; format: functional, cell-based; settings: MCF7, 72 h
[4] = system: MDA-MB-231; test: Cytotoxicity against human MDA-MB-231 cells assessed as inhibition of cell growth incubated for 72 hrs by MTT assay; format: functional, cell-based; settings: MDA-MB-231, 72 h
[5] = system: BT-549; test: Synergistic antiproliferative activity against human BT-549 cells assessed as synergistic score in presence of Olaparib; format: functional
[6] = target: T1, Poly [ADP-ribose] polymerase 1 (Homo sapiens, UniProt P09874); test: Inhibition of PARP-1 (unknown origin) assessed as fold change in inhibition using Femto-ECL as substrate preincubated for 2.7 hrs followed by substrate addition by chemiluminescence assay
T1 sequence (P09874 whole entry): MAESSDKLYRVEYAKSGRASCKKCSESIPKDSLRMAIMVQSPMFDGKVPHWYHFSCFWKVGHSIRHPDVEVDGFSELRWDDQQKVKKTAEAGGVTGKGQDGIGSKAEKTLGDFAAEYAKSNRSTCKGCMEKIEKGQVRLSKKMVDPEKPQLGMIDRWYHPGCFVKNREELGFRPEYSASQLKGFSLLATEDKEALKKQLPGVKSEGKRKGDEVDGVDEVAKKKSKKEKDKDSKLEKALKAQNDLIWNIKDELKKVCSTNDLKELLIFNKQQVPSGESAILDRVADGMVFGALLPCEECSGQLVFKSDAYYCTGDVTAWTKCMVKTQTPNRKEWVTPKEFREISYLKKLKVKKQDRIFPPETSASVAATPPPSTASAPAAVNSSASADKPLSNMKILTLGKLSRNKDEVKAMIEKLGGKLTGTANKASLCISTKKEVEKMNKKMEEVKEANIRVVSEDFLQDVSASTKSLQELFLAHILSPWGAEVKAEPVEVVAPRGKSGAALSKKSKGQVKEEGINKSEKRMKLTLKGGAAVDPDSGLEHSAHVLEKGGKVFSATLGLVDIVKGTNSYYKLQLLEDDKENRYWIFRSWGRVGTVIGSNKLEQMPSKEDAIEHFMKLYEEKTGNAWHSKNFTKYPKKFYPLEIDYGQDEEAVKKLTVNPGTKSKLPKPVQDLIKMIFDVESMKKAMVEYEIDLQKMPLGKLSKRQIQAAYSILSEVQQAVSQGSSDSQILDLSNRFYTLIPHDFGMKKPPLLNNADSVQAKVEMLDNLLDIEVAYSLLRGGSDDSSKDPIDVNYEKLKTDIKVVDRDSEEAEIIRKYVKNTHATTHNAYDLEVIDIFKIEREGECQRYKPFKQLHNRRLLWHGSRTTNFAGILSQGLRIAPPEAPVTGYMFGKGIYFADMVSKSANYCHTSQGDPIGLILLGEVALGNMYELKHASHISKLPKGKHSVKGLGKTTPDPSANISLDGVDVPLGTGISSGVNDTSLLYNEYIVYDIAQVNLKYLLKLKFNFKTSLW

[7] = system: BT-549; test: Induction in cell cycle arrest in human BT-549 cells assessed as downregulation of CDK1 expression at 0.5 uM incubated for 48 hrs by Western blotting analysis; format: functional, cell-based
[8] = target: T1, Poly [ADP-ribose] polymerase 1; test: Inhibition of PARP-1 in human BT-549 cells assessed as downregulation of P-ATM expression at 0.05 uM incubated for 48 hrs by immunoblotting analysis; format: cell-based
[9] = system: BT-549; test: Induction of apoptosis in human BT-549 cells assessed as increase in late apoptotic cells incubated for 48 hrs by Annexin V-FITC/PI staining based flow cytometric analysis; format: functional, cell-based
[10] = system: BT-549; test: Induction of apoptosis in human BT-549 cells assessed as increase in early apoptotic cells incubated for 48 hrs by Annexin V-FITC/PI staining based flow cytometric analysis; format: functional, cell-based
[11] = system: BT-549; test: Induction of apoptosis in human BT-549 cells assessed as upregulation of cleaved PARP expression incubated for 48 hrs by Western blotting analysis; format: functional, cell-based
[12] = target: T1, Poly [ADP-ribose] polymerase 1; test: Inhibition of PARP-1 in human BT-549 cells assessed as downregulation of BRCA1 expression at 0.5 uM incubated for 48 hrs by immunoblotting analysis; format: cell-based
[13] = target: T1, Poly [ADP-ribose] polymerase 1; test: Inhibition of PARP-1 in human BT-549 cells assessed as downregulation of RAD51 expression at 0.5 uM incubated for 48 hrs by immunoblotting analysis; format: cell-based
[14] = system: BT-549; test: Induction of apoptosis in human BT-549 cells assessed as upregulation of cleaved caspase-3 expression incubated for 48 hrs by Western blotting analysis; format: functional, cell-based
[15] = target: 20S proteasome; test: Inhibition of 20S proteasome (unknown origin) using […] as substrate; format: protein-complex assay, Homo sapiens
[16] = system: BT-549; test: Induction of DNA damage in human BT-549 cells assessed as increase in polyubiquitination at 0.125 uM incubated for 48 hrs by fluorescence confocal microscopic analysis; format: functional, cell-based
[17] = target: T1, Poly [ADP-ribose] polymerase 1; test: Inhibition of PARP-1 in human BT-549 cells assessed as downregulation of BRCA1 expression at 0.05 uM incubated for 48 hrs by immunoblotting analysis; format: cell-based
[18] = target: T1, Poly [ADP-ribose] polymerase 1; test: Inhibition of PARP-1 in human BT-549 cells assessed as downregulation of RAD51 expression at 0.05 uM incubated for 48 hrs by immunoblotting analysis; format: cell-based
[19] = system: BT-549; test: Induction in cell cycle arrest in human BT-549 cells assessed as downregulation of Cyclin A2 expression at 0.5 uM incubated for 48 hrs by Western blotting analysis; format: functional, cell-based
[20] = system: BT-549; test: Induction of DNA damage in human BT-549 cells assessed as decrease in BRCA1 localization in nucleus at 0.125 uM incubated for 48 hrs by fluorescence confocal microscopic analysis; format: functional, cell-based
[21] = target: T1, Poly [ADP-ribose] polymerase 1; test: Inhibition of PARP-1 in human BT-549 cells assessed as downregulation of BRCA1 mRNA expression incubated for 48 hrs by RT-qPCR analysis; format: cell-based
[22] = system: BT-549; test: Induction of DNA damage in human BT-549 cells assessed as decrease in polyubiquitination in nucleus at 0.125 uM incubated for 48 hrs by fluorescence confocal microscopic analysis; format: functional, cell-based
[23] = system: BT-549; test: Induction in cell cycle arrest in human BT-549 cells assessed as downregulation of CDK1 expression at 0.05 uM incubated for 48 hrs by Western blotting analysis; format: functional, cell-based
[24] = target: T1, Poly [ADP-ribose] polymerase 1; test: Inhibition of PARP-1 (unknown origin) using Femto-ECL as substrate preincubated for 2.7 hrs followed by substrate addition by chemiluminescence assay
[25] = system: BT-549; test: Inhibition of colony formation in human BT-549 cells assessed as reduction in colony number incubated for 14 days by crystal violet staining based analysis; format: functional, cell-based; settings: time 14.0 day
[26] = system: BT-549; test: Induction of DNA damage in human BT-549 cells assessed as upregulation of gamma-H2AX level at 0.5 uM incubated for 48 hrs by immunoblotting analysis; format: functional, cell-based
[27] = system: BT-549; test: Inhibition of colony formation in human BT-549 cells assessed as reduction in colony size incubated for 14 days by crystal violet staining based analysis; format: functional, cell-based; settings: time 14.0 day
[28] = target: T1, Poly [ADP-ribose] polymerase 1; test: Inhibition of PARP-1 in human BT-549 cells assessed as downregulation of FANCD2 mRNA expression incubated for 48 hrs by RT-qPCR analysis; format: cell-based
[29] = target: T1, Poly [ADP-ribose] polymerase 1; test: Inhibition of PARP-1 in human BT-549 cells assessed as downregulation of P-ATM expression at 0.5 uM incubated for 48 hrs by immunoblotting analysis; format: cell-based
[30] = system: BT-549; test: Induction in cell cycle arrest in human BT-549 cells assessed as downregulation of Cyclin A2 expression at 0.05 uM incubated for 48 hrs by Western blotting analysis; format: functional, cell-based
[31] = system: BT-549; test: Induction of DNA damage in human BT-549 cells assessed as decrease in ubiquitin localization in nucleus at 0.125 uM incubated for 48 hrs by fluorescence confocal microscopic analysis; format: functional, cell-based
[32] = system: BT-549; test: Induction in cell cycle arrest in human BT-549 cells assessed as upregulation of p21 expression at 0.5 uM incubated for 48 hrs by Western blotting analysis; format: functional, cell-based
[33] = target: T1, Poly [ADP-ribose] polymerase 1; test: Inhibition of PARP-1 in human BT-549 cells assessed as downregulation of BRCA2 mRNA expression incubated for 48 hrs by RT-qPCR analysis; format: cell-based
[34] = system: BT-549; test: Induction of DNA damage in human BT-549 cells assessed as upregulation of gamma-H2AX level at 0.05 uM incubated for 48 hrs by immunoblotting analysis; format: functional, cell-based
[35] = system: BT-549; test: Induction in cell cycle arrest in human BT-549 cells assessed as upregulation of p21 expression at 0.05 uM incubated for 48 hrs by Western blotting analysis; format: functional, cell-based
[36] = target: T1, Poly [ADP-ribose] polymerase 1; test: Inhibition of PARP-1 in human BT-549 cells assessed as downregulation of RAD51 mRNA expression incubated for 48 hrs by RT-qPCR analysis; format: cell-based

**Q.** What does the source list for `CC(C)C[C@H](NC(=O)CNC(=O)c1cc(Cl)ccc1Cl)B(O)O` [IXAZOMIB]?
**A.** pIC50 [1]: 6.64; Activity [2]: inactive; pIC50 [3]: 6.87; pIC50 [4]: 7.37; Activity [5]: 12.191

**Q.** Which fold change (FC) [6] does the source give for `CC(C)C[C@H](NC(=O)[C@H](CC(C)C)NC(=O)c1cc(Cc2nn(C)c(=O)c3ccccc23)ccc1F)B1O[C@@H]2C[C@@H]3C[C@@H](C3(C)C)[C@]2(C)O1` here?
**A.** The fold change (FC) was 100.

**Q.** How did the Activity [7] turn out when `CSCC[C@H](NC(=O)c1cc(Cc2n[nH]c(=O)c3ccccc23)ccc1F)C(=O)N[C@@H](CC(C)C)B1O[C@@H]2C[C@@H]3C[C@@H](C3(C)C)[C@]2(C)O1` was run?
**A.** Its Activity is “Active”.

**Q.** What about the pIC50 [1] of the same compound?
**A.** The pIC50 was 7.91.

**Q.** And the inhibition [8]?
**A.** Its inhibition is “Active”.

**Q.** What about the Activity [2] of the same compound?
**A.** The Activity was “Active”.

**Q.** What about the Activity [9] of the same compound?
**A.** The Activity was “Dose-Dependent Effect”.

**Q.** What about the Activity [10] of the same compound?
**A.** The Activity was “Dose-Dependent Effect”.

**Q.** And the Activity [11]?
**A.** The Activity was “Dose-Dependent Effect”.

**Q.** What about the inhibition [12] of the same compound?
**A.** The inhibition was “Active”.

**Q.** And the inhibition [13]?
**A.** Its inhibition is “Active”.

**Q.** What about the Activity [14] of the same compound?
**A.** The Activity was “Dose-Dependent Effect”.

**Q.** And the pIC50 [15]?
**A.** Its pIC50 is 7.08.

**Q.** And the Activity [16]?
**A.** The Activity was “Active”.

**Q.** What about the inhibition [17] of the same compound?
**A.** Its inhibition is “Active”.

**Q.** And the inhibition [18]?
**A.** The inhibition was “Active”.

**Q.** What about the pIC50 [3] of the same compound?
**A.** Its pIC50 is 7.22.

**Q.** What about the Activity [19] of the same compound?
**A.** Its Activity is “Active”.

**Q.** And the Activity [20]?
**A.** Its Activity is “Active”.

**Q.** And the inhibition [21]?
**A.** Its inhibition is “Dose-Dependent Effect”.

**Q.** What about the Activity [22] of the same compound?
**A.** Its Activity is “Active”.

**Q.** And the Activity [23]?
**A.** The Activity was “Active”.

**Q.** And the pIC50 [24]?
**A.** Its pIC50 is 6.99.

**Q.** And the inhibition [25]?
**A.** Its inhibition is “Dose-Dependent Effect”.

**Q.** And the Activity [26]?
**A.** Its Activity is “Active”.

**Q.** And the inhibition [27]?
**A.** The inhibition was “Dose-Dependent Effect”.

**Q.** And the inhibition [28]?
**A.** Its inhibition is “Dose-Dependent Effect”.

**Q.** What about the inhibition [29] of the same compound?
**A.** The inhibition was “Active”.

**Q.** What about the Activity [30] of the same compound?
**A.** Its Activity is “Active”.

**Q.** And the pIC50 [4]?
**A.** The pIC50 was 7.17.

**Q.** And the Activity [31]?
**A.** Its Activity is “Active”.

**Q.** And the Activity [32]?
**A.** The Activity was “Active”.

**Q.** And the inhibition [33]?
**A.** The inhibition was “Dose-Dependent Effect”.

**Q.** And the Activity [34]?
**A.** Its Activity is “Active”.

**Q.** And the Activity [35]?
**A.** The Activity was “Active”.

**Q.** What about the inhibition [36] of the same compound?
**A.** Its inhibition is “Dose-Dependent Effect”.

— ChEMBL document CHEMBL5528008, “Design and synthesis of the first PARP-1 and proteasome dual inhibitors to treat breast cancer” (Eur J Med Chem, 2024)
